Experiment in all cases: radiolabelled [3H]-xanthine uptake in intact  cells
What all share (assay type): cell-based, Aspergillus nidulans
What all share (settings): labelled compound

For one test, the system named is T1, UapA/Jen1NT94-CT33.
T1 construct: Jen1 1-94 / intact UapA / Jen1 584-616, GFP-tagged, GAL promoter, in S. cerevisiae; one polypeptide; with Carboxylic acid transporter protein homolog; Carboxylic acid transporter protein homolog

The next test has as its system T2, UapA/Jen1CT33.
T2 construct: Jen1 residues 584-616 fused C-terminally to intact UapA, GFP-tagged, GAL promoter, in S. cerevisiae; one polypeptide; with Carboxylic acid transporter protein homolog

The next test relates to T3, UapA/Jen1NT94.
T3 construct: Jen1 residues 1-94 fused N-terminally to intact UapA, GFP-tagged, GAL promoter, in S. cerevisiae; one polypeptide; with Carboxylic acid transporter protein homolog

One may read the Km as the substrate concentration at which the rate is half of its maximum.

With `O=c1[nH]c(=O)c2[nH]cnc2[nH]1` [xanthine], the Michaelis constant (Km) in the test with UapA/Jen1NT94-CT33 came to 101 ± 10 µM; with UapA/Jen1CT33, 10 ± 3 µM; with UapA/Jen1NT94, 5 ± 2 µM.

The record behind these values is paper doi:10.1101/2021.09.27.461913v1, “Interactions of cytosolic termini of the Jen1 monocarboxylate transporter are critical for trafficking, transport activity and endocytosis” (biorxiv, 2021).
